The values below come from US10835533B2, “1 -((3S,4R)-4-(3-fluorophenyl)-1-(2-methoxyethyl)pyrrolidin-3-yl)-3-(4-methyl-3-(2-methylpyrimidin-5-yl)-1-phenyl-1H-pyrazol-5-yl)urea as a TrkA kinase inhibitor” (Array BioPharma Inc., priority 2014, dated 2020).

Series [1] can be described thus: Liver microsomal clearance, mouse. It is filed as in vitro ADME. Conditions: pH 7.4; Mouse liver microsomes; 1 mg/mL; 20 minutes. The procedure:
(§1) The predicted hepatic clearance (CLh) value was calculated by scaling the in vitro half-life (t1/2) for stability of the compound in liver microsomes (1 mg/mL; 20 minutes) using the physical and physiological scaling factors used to predict intrinsic clearance (CLint) and hepatic clearance (CLhep) listed in Table 2 and employed in the following equations: […]
(§2) where D is the amount of cytochrome P450-related protein per mass of liver, W is the average mass of liver present per weight of animal, C is the liver microsomal concentration, and Q is the species-dependent hepatic blood flow.
(§3) A 100 mM potassium phosphate assay buffer solution (KPB) was prepared as follows. Both KH2PO4 and K2HPO4 were dissolved separately in reagent grade water resulting in final concentrations 100 mM. A 75:25 mixture v/v of K2HPO4:KH2PO4 was prepared and the pH of the solution was adjusted to 7.4 using diluted HCl or diluted NaOH solutions. Stock solutions of Compound 1, Compound 2 and Compound 3 were prepared at 10 mM (active compound) in DMSO. The stock solution was diluted immediately before use to 2.5 μM using the KPB solution to create the working standard. All test compounds were completely soluble in DMSO by visual inspection at room temperature. The NADPH-regenerating solution (NRS) was prepared on the day of analysis by diluting one volume of 17 mg/mL NADP^+ with one volume of 78 mg/mL glucose-6-phosphate (both prepared in KPB, pH 7.4) and 7.9 volumes of 20 mM MgCl2. The final concentrations of NADP^+ and glucose-6-phosphate were 1.7 mg/mL and 7.8 mg/mL, respectively. […]
(§4) All calculations were performed using BioAssay Enterprise. The mean peak area ratios were calculated by averaging the peak area ratios (n=2) of Compound 1, Compound 2, Compound 3, and the internal standard for each sample. Percent remaining was calculated by determining the ratio of the peak area ratio at each time point to the peak area ratio of the time-zero samples. The rate of loss of test compound (km) was determined by linear regression of −ln(f(t)) versus time. […] The t1/2 was determined dividing ln(2) by km. […]
For orientation: Liver microsomes are a subcellular fraction often used to study metabolism.

Series [2] can be described thus: Liver microsomal clearance, human. It is filed as in vitro ADME. To be noted: pH 7.4; Human liver microsomes; 1 mg/mL; 20 minutes. The method, then: as §1, §2, §3, §4

`COCCN1C[C@@H](NC(=O)Nc2c(C)c(-c3cnn(C)c3)nn2-c2ccccc2)[C@H](c2ccc(F)cc2)C1` [Compound 3, 1-(1′,4-dimethyl-1-phenyl-1H,1′H-[3,4′-bipyrazol]-5-yl)-3-((3S,4R)-4-(4-fluorophenyl)-1-(2-methoxyethyl)pyrrolidin-3-yl)urea]: the figures for the CLhep predicted at 1 μM in series [1] and in series [2] were 60 mL/min/kg and 10 mL/min/kg, respectively.

As to `COCCN1C[C@@H](NC(=O)Nc2c(C)c(-c3cnc(C)nc3)nn2-c2ccccc2)[C@H](c2cccc(F)c2)C1` [Compound 1, 1-((3S,4R)-4-(3-fluorophenyl)-1-(2-methoxyethyl)pyrrolidin-3-yl)-3-(4-methyl-3-(2-methylpyrimidin-5-yl)-1-phenyl-1H-pyrazol-5-yl)urea], the CLhep predicted at 1 μM in series [1] is 50 mL/min/kg; in series [2], 9.8 mL/min/kg.

Regarding `COCCN1C[C@@H](NC(=O)Nc2c(C)c(-c3cnc(C)nc3)nn2-c2ccccc2)[C@H](c2ccc(F)c(F)c2)C1` [Compound 2, 1-((3S,4R)-4-(3,4-difluorophenyl)-1-(2-methoxyethyl)pyrrolidin-3-yl)-3-(4-methyl-3-(2-methylpyrimidin-5-yl)-1-phenyl-1H-pyrazol-5-yl)urea], the results for the CLhep predicted at 1 μM in series [1] and in series [2] were 57 mL/min/kg and 14 mL/min/kg, respectively.
